Laboratory results published in patent US20170326125A1, “MULTISUBSTITUTED AROMATIC COMPOUNDS AS INHIBITORS OF THROMBIN” (VERSEON CORPORATION, priority 2016, published 2017).

These molecules were tested against T1, Human thrombin (Homo sapiens, UniProt P00734) (assay: Inhibition of the protease activity of thrombin (chromogenic substrate S-2238)). Details: Table C; 3 nM thrombin, 125 μM S-2238, 10 min pre-incubation, RT.
T1 construct: purchased Haematologic Technologies Inc
Format: biochemical
Procedure: Compounds described herein can be assayed, by a variety of methods known in the art and described herein, for inhibition of biological activity, e.g., protease activity, of a variety of proteins, e.g., thrombin.
The thrombin activity reported herein (e.g., Table A) was obtained as follows. Human thrombin was obtained from Haematologic Technologies Inc. The chromogenic
Thrombin was assayed in buffer containing 0.05 M Tris (pH 7.4), 0.015 M NaCl and 0.01% PEG-8000. The final concentration of enzyme used was 3 nM thrombin. […] All assays were performed in 96-well microtiter plates at room temperature (RT). […] Inhibitor IC50 values were determined by adding test compound as ten point, three-fold serial dilutions in buffer solution, as known in the art. The plate was read at 10 minutes after substrate addition. The IC50 was calculated by plotting the percent (%) inhibition against compound concentration and fitting the data to a constrained four parameter sigmoidal curve, as known in the art.

Row | IC50 [µM] | Compound
1 | > 1 | O=S(=O)(c1ccc(Cl)cc1)n1nc(-c2cccnc2)nc1NCc1cccs1 [Cmpd 336, 1-[(4-chlorobenzene)sulfonyl]-3-(pyridin-3-yl)-N-(thiophen-2-ylmethyl)-1H-1,2,4-triazol-5-amine]
2 | < 0.1 | CC(=O)n1nc(-c2cccnc2)nc1NCc1cccs1 [Cmpd 343, 1-[3-(pyridin-3-yl)-5-[(thiophen-2-ylmethyl)amino]-1H-1,2,4-triazol-1-yl]ethan-1-one]
3 | < 0.1 | CSc1nc(-c2ccco2)nn1C(=O)c1ccccc1Cl [Cmpd 330, 1-[(2-chlorophenyl)carbonyl]-3-(furan-2-yl)-5-(methylsulfanyl)-1H-1,2,4-triazole]
4 | 0.1 to 1 | O=C(c1cccnc1)n1nc(-c2cccnc2)nc1NCc1cccs1 [Cmpd 372, 3-(pyridin-3-yl)-1-[(pyridin-3-yl)carbonyl]-N-(thiophen-2-ylmethyl)-1H-1,2,4-triazol-5-amine]
5 | > 1 | CS(=O)(=O)n1nc(-c2cccnc2)nc1NCc1ccco1 [Cmpd 395, N-(furan-2-ylmethyl)-1-methanesulfonyl-3-(pyridin-3-yl)-1H-1,2,4-triazol-5-amine]
6 | < 0.1 | CCC(=O)n1nc(-c2cccnc2)nc1NCc1ccccc1 [Cmpd 351, 1-[5-(benzylamino)-3-(pyridin-3-yl)-1H-1,2,4-triazol-1-yl]propan-1-one]
7 | > 1 | Nc1nc(-c2cccnc2)nn1S(=O)(=O)c1ccccc1 [Cmpd 326, 1-(benzenesulfonyl)-3-(pyridin-3-yl)-1H-1,2,4-triazol-5-amine]
8 | < 0.1 | COc1ccccc1C(=O)n1nc(-c2ccco2)nc1SC [Cmpd 367, 3-(furan-2-yl)-1-[(2-methoxyphenyl)carbonyl]-5-(methylsulfanyl)-1H-1,2,4-triazole]
9 | > 1 | CCS(=O)(=O)n1nc(C(=O)N2CCOCC2)nc1N [Cmpd 329, 1-(ethanesulfonyl)-3-[(morpholin-4-yl)carbonyl]-1H-1,2,4-triazol-5-amine]
10 | < 0.1 | CC(C)CC(=O)n1nc(-c2cccnc2)nc1NCc1ccccc1 [Cmpd 350, 1-[5-(benzylamino)-3-(pyridin-3-yl)-1H-1,2,4-triazol-1-yl]-3-methylbutan-1-one]
11 | < 0.1 | O=C(CCc1ccccc1)n1nc(-c2cccnc2)nc1NCc1ccc(F)cc1 [Cmpd 315, 1-(5-[(4-fluorophenyl)methyl]amino-3-(pyridin-3-yl)-1H-1,2,4-triazol-1-yl)-3-phenylpropan-1-one]
12 | > 1 | Nc1n[nH]c(-c2ccncc2)n1 [Cmpd 3, 3-(pyridin-4-yl)-1H-1,2,4-triazol-5-amine]

Same assay, conditions: inhibition of the protease activity of thrombin

Row | IC50 [µM] | Compound
13 | < 0.1 | O=C(c1ccccc1Br)n1nc(-c2ccccn2)nc1NCc1ccccc1 [Cmpd 240, N-benzyl-1-[(2-bromophenyl)carbonyl]-3-(pyridin-2-yl)-1H-1,2,4-triazol-5-amine]
14 | > 1 | COc1ccccc1C(=O)n1nc(-c2ccccc2F)cc1NCc1ccccc1 [Cmpd 278, N-benzyl-3-(2-fluorophenyl)-1-[(2-methoxyphenyl)carbonyl]-1H-pyrazol-5-amine]
15 | > 1 | O=C(N1CCCCC1)n1nc(-c2cccnc2)nc1NCc1ccc(F)cc1 [Cmpd 215, N-[(4-fluorophenyl)methyl]-1-[(piperidin-1-yl)carbonyl]-3-(pyridin-3-yl)-1H-1,2,4-triazol-5-amine]
16 | > 1 | COc1ccc(CNc2nc(-c3cccnc3)nn2C(=O)c2ccsc2)cc1 [Cmpd 228, N-[(4-methoxyphenyl)methyl]-3-(pyridin-3-yl)-1-[(thiophen-3-yl)carbonyl]-1H-1,2,4-triazol-5-amine]
17 | < 0.1 | O=C(c1ccc(Cl)cc1)n1nc(-c2ccccn2)nc1NCc1ccccc1 [Cmpd 262, N-benzyl-1-[(4-chlorophenyl)carbonyl]-3-(pyridin-2-yl)-1H-1,2,4-triazol-5-amine]
18 | > 1 | O=C(c1cccc2c1OC(F)(F)O2)n1nc(-c2ccccn2)nc1NCc1ccccc1 [Cmpd 231, N-benzyl-1-[(2,2-difluoro-2H-1,3-benzodioxol-4-yl)carbonyl]-3-(pyridin-2-yl)-1H-1,2,4-triazol-5-amine]
19 | 0.1 to 1 | COc1ccccc1C(=O)n1nc(-c2ccccn2)cc1NCc1ccoc1 [Cmpd 202, N-(furan-3-ylmethyl)-1-[(2-methoxyphenyl)carbonyl]-3-(pyridin-2-yl)-1H-pyrazol-5-amine]
20 | > 1 | COc1ccccc1C(=O)c1cn(-c2ccccc2)nc1N(Cc1ccc(F)cc1)C(=O)OC(C)(C)C [Cmpd 303, tert-butyl N-[(4-fluorophenyl)methyl]-N-4-[(2-methoxyphenyl)carbonyl]-1-phenyl-1H-pyrazol-3-ylcarbamate]
21 | > 1 | Cc1ccccc1C(=O)n1nc(-c2ccccn2)cc1NCc1ccccc1 [Cmpd 260, N-benzyl-1-[(2-methylphenyl)carbonyl]-3-(pyridin-2-yl)-1H-pyrazol-5-amine]
22 | > 1 | c1ccc(CNc2nc(-c3ccco3)n[nH]2)cc1 [Cmpd 281, N-benzyl-3-(furan-2-yl)-1H-1,2,4-triazol-5-amine]
23 | > 1 | O=C(Nc1ccccc1Cl)n1nc(-c2cccnc2)nc1NCc1ccc(F)cc1 [Cmpd 200, N-(2-chlorophenyl)-5-[(4-fluorophenyl)methyl]amino-3-(pyridin-3-yl)-1H-1,2,4-triazole-1-carboxamide]
24 | < 0.1 | O=C(c1ccc(Cl)cc1)n1nc(-c2ccncc2)nc1NCc1ccccc1 [Cmpd 263, N-benzyl-1-[(4-chlorophenyl)carbonyl]-3-(pyridin-4-yl)-1H-1,2,4-triazol-5-amine]
25 | > 1 | Cc1c(-c2ccccc2)n[nH]c1N(Cc1ccc(F)cc1)C(=O)C(C)(C)C [Cmpd 218, N-[(4-fluorophenyl)methyl]-2,2-dimethyl-N-(4-methyl-3-phenyl-1H-pyrazol-5-yl)propanamide]
26 | > 1 | Fc1ccc(CNc2nc(-c3ccccn3)nn2CCc2ccccc2)cc1 [Cmpd 203, N-[(4-fluorophenyl)methyl]-1-(2-phenylethyl)-3-(pyridin-2-yl)-1H-1,2,4-triazol-5-amine]
27 | < 0.1 | O=C(c1ccco1)n1nc(-c2ccncc2)nc1NCc1ccccc1 [Cmpd 266, N-benzyl-1-[(furan-2-yl)carbonyl]-3-(pyridin-4-yl)-1H-1,2,4-triazol-5-amine]

Same assay, conditions: inhibition of the protease activity of thrombin; class symbols a/b/c

Row | IC50 [µM] | Compound
28 | < 0.1 | COc1ccccc1C(=O)n1nc(-c2cccnc2)nc1SC [Cmpd 182, 3-1-[(2-methoxyphenyl)carbonyl]-5-(methylsulfanyl)-1H-1,2,4-triazol-3-ylpyridine]
29 | < 0.1 | CCCC(=O)n1nc(-c2ccncc2)nc1NCc1ccc(F)cc1 [Cmpd 80, 1-(5-[(4-fluorophenyl)methyl]amino-3-(pyridin-4-yl)-1H-1,2,4-triazol-1-yl)butan-1-one]
30 | > 1 | CN(C)C(=O)c1cn(-c2ccccn2)nc1NCc1ccc(F)cc1 [Cmpd 49]
31 | < 0.1 | CCC(=O)n1nc(-c2ccncc2)nc1NCc1ccccc1 [Cmpd 151, 1-[5-(benzylamino)-3-(pyridin-4-yl)-1H-1,2,4-triazol-1-yl]propan-1-one]
32 | > 1 | O=C(Oc1ccccc1Cl)n1nc(-c2cccnc2)nc1NCc1ccc(F)cc1 [Cmpd 172, 2-chlorophenyl 5-[(4-fluorophenyl)methyl]amino-3-(pyridin-3-yl)-1H-1,2,4-triazole-1-carboxylate]
33 | < 0.1 | CC(C)(C)C(=O)n1nc(-c2ccccn2)nc1NCc1ccccc1 [Cmpd 137, 1-[5-(benzylamino)-3-(pyridin-2-yl)-1H-1,2,4-triazol-1-yl]-2,2-dimethylpropan-1-one]
34 | > 1 | COC(=O)c1n[nH]c(NC(=O)c2ccccc2F)n1 [Cmpd 193, methyl 5-[(2-fluorobenzene)amido]-1H-1,2,4-triazole-3-carboxylate]
35 | > 1 | O=C(N1CCOCC1)n1nc(-c2cccnc2)nc1NCc1ccc(F)cc1 [Cmpd 17]
36 | < 0.1 | COc1ccc(CNc2nc(-c3ccccn3)nn2C(=O)C(C)C)cc1 [Cmpd 88, 1-(5-[(4-methoxyphenyl)methyl]amino-3-(pyridin-2-yl)-1H-1,2,4-triazol-1-yl)-2-methylpropan-1-one]
37 | < 0.1 | CCC(=O)n1nc(-c2ccncc2)nc1NCc1ccc(F)cc1 [Cmpd 81, 1-(5-[(4-fluorophenyl)methyl]amino-3-(pyridin-4-yl)-1H-1,2,4-triazol-1-yl)propan-1-one]
38 | < 0.1 | O=C(c1ccccc1)n1nc(-c2ccncc2)nc1NCc1ccc(F)cc1 [Cmpd 14]
39 | < 0.1 | CCC(=O)n1nc(-c2ccccn2)nc1NCc1ccc(OC)cc1 [Cmpd 93, 1-(5-[(4-methoxyphenyl)methyl]amino-3-(pyridin-2-yl)-1H-1,2,4-triazol-1-yl)propan-1-one]
40 | > 1 | CN(C)C(=O)n1nc(-c2cccnc2)nc1NCc1ccc(F)cc1 [Cmpd 188, 5-[(4-fluorophenyl)methyl]amino-N,N-dimethyl-3-(pyridin-3-yl)-1H-1,2,4-triazole-1-carboxamide]
41 | > 1 | CON(C)C(=O)c1cn(-c2ccccn2)nc1NCc1ccc(F)cc1 [Cmpd 48]
42 | < 0.1 | COc1ccc(CNc2nc(-c3ccncc3)nn2C(=O)C(C)(C)C)cc1 [Cmpd 16]
43 | 0.1 to 1 | O=C(c1ccccc1Cl)n1nc(-c2cccnc2)nc1SCc1ccc(F)cc1 [Cmpd 181, 3-1-[(2-chlorophenyl)carbonyl]-5-[(4-fluorophenyl)methyl]sulfanyl-1H-1,2,4-triazol-3-ylpyridine]
44 | 0.1 to 1 | COc1ccc(CNc2nc(-c3ccccn3)nn2C(=O)c2ccco2)cc1 [Cmpd 123, 1-[(furan-2-yl)carbonyl]-N-[(4-methoxyphenyl)methyl]-3-(pyridin-2-yl)-1H-1,2,4-triazol-5-amine]
